Experimental data published in PubChem BioAssay (NCI).
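Step 1: Grow cells in 96-well plates. Step 2: Expose to compound for 48 hours at 5 concentrations. Step 3: Interpolate endpoints linearly; if unreached, use highest concentration. TGI marks complete inhibition of growth.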

What was measured:
Assay in all cases: NCI tumour cell line growth inhibition, 48 h
[1] = system: A498 renal
[2] = system: OVCAR-8 ovarian
[3] = system: SF-539 CNS
[4] = system: HL-60(TB) leukemia
[5] = system: MOLT-4 leukemia
[6] = system: IGROV1 ovarian
[7] = system: A549 NSCLC
[8] = system: OVCAR-3 ovarian
[9] = system: NCI/ADR-RES ovarian
[10] = system: MCF7 breast
[11] = system: MALME-3M melanoma
[12] = system: MDA-MB-435
[13] = system: NCI-H226 lung
[14] = system: MDA-MB-231 breast
[15] = system: SR leukemia
[16] = system: TK-10 renal
[17] = system: 786-0 renal
[18] = system: ACHN renal
[19] = system: UO-31 renal
[20] = system: SNB-75 CNS
[21] = system: PC-3 prostate
[22] = system: OVCAR-4 ovarian
[23] = system: BT-549 breast
[24] = system: CAKI-1 renal
[25] = system: LOX IMVI melanoma
[26] = system: OVCAR-5 ovarian
[27] = system: NCI-H23 lung
[28] = system: K-562 leukemia
[29] = system: HCT-116 colon
[30] = system: UACC-257 melanoma
[31] = system: EKVX NSCLC
[32] = system: SNB-19 CNS
[33] = system: RXF 393 renal
[34] = system: UACC-62 melanoma
[35] = system: HOP-92 NSCLC
[36] = system: SK-OV-3 ovarian
[37] = system: HOP-62 NSCLC
[38] = system: SK-MEL-28 melanoma
[39] = system: U251 CNS
[40] = system: COLO 205 colon
[41] = system: M14 melanoma
[42] = system: SN12C renal
[43] = system: KM12 colon
[44] = system: SK-MEL-2 melanoma
[45] = system: CCRF-CEM leukemia
[46] = system: NCI-H460 lung
[47] = system: SF-295 CNS
[48] = system: SK-MEL-5 melanoma
[49] = system: HT29 colon
[50] = system: HCT-15 colon
[51] = system: SW-620 colon
[52] = system: MDA-N
[53] = system: HS 578T breast
[54] = system: SF-268 CNS
[55] = system: DU-145 prostate
[56] = system: NCI-H522 lung
[57] = system: RPMI-8226 leukemia
[58] = system: T-47D breast
[59] = system: HCC-2998 colon

Compound: CC1CCC2C(C)(C)CC3(C)CCC1C23O (configuration not stated)
- TGI [1]: 36.7 µM
- TGI [2]: 34.4 µM
- TGI [3]: 31.6 µM
- TGI [4]: 5.57 µM
- TGI [5]: 28 µM
- TGI [6]: 29.4 µM
- TGI [7]: 37 µM
- TGI [8]: 29.9 µM
- TGI [9]: 28 µM
- TGI [10]: 29.3 µM
- TGI [11]: 26.2 µM
- TGI [12]: 30.5 µM
- TGI [13]: 29.9 µM
- TGI [14]: 29.7 µM
- TGI [15]: 29.1 µM
- TGI [16]: 31.6 µM
- TGI [17]: 29 µM
- TGI [18]: 29.7 µM
- TGI [19]: 30 µM
- TGI [20]: 48.4 µM
- TGI [21]: 25.7 µM
- TGI [22]: 49.6 µM
- TGI [23]: 32 µM
- TGI [24]: 27.2 µM
- TGI [25]: 28.9 µM
- TGI [26]: 34.9 µM
- TGI [27]: 29.6 µM
- TGI [28]: 40.9 µM
- TGI [29]: 27.9 µM
- TGI [30]: 29.7 µM
- TGI [31]: 28.3 µM
- TGI [32]: > 100 µM
- TGI [33]: 30.8 µM
- TGI [34]: 28.2 µM
- TGI [35]: 26.4 µM
- TGI [36]: 89.2 µM
- TGI [37]: 30.6 µM
- TGI [38]: 29.8 µM
- TGI [39]: 29.5 µM
- TGI [40]: 33.2 µM
- TGI [41]: 29.4 µM
- TGI [42]: 32.6 µM
- TGI [43]: 29.1 µM
- TGI [44]: 27.3 µM
- TGI [45]: 21.7 µM
- TGI [46]: 30.7 µM
- TGI [47]: 25.8 µM
- TGI [48]: 27.7 µM
- TGI [49]: 29.9 µM
- TGI [50]: 30.6 µM
- TGI [51]: 30.2 µM
- TGI [52]: 25.3 µM
- TGI [53]: 30.3 µM

Compound: CC(C)=CCNc1ncnc2c1c(C#N)cn2C1OC(CO)C(O)C1O (configuration not stated)
- TGI [1]: > 72.6 µM
- TGI [2]: > 100 µM
- TGI [3]: > 100 µM
- TGI [4]: 67.9 µM
- TGI [5]: > 100 µM
- TGI [6]: > 100 µM
- TGI [7]: > 100 µM
- TGI [8]: 77.1 µM
- TGI [9]: > 100 µM
- TGI [11]: > 100 µM
- TGI [12]: > 100 µM
- TGI [13]: > 100 µM
- TGI [14]: > 100 µM
- TGI [15]: > 100 µM
- TGI [16]: 24.7 µM
- TGI [17]: > 100 µM
- TGI [18]: > 100 µM
- TGI [19]: > 100 µM
- TGI [20]: > 100 µM
- TGI [21]: > 100 µM
- TGI [54]: > 100 µM
- TGI [22]: 23.3 µM
- TGI [55]: > 100 µM
- TGI [23]: > 100 µM
- TGI [24]: > 100 µM
- TGI [25]: > 100 µM
- TGI [26]: > 100 µM
- TGI [27]: > 100 µM
- TGI [28]: > 100 µM
- TGI [29]: > 100 µM
- TGI [30]: > 100 µM
- TGI [31]: > 100 µM
- TGI [32]: > 100 µM
- TGI [33]: > 100 µM
- TGI [34]: > 100 µM
- TGI [35]: > 100 µM
- TGI [36]: > 100 µM
- TGI [37]: > 100 µM
- TGI [56]: > 50.3 µM
- TGI [38]: > 100 µM
- TGI [39]: > 100 µM
- TGI [40]: 6.76 µM
- TGI [57]: > 72.9 µM
- TGI [41]: > 100 µM
- TGI [42]: > 100 µM
- TGI [43]: > 100 µM
- TGI [44]: > 100 µM
- TGI [45]: 81.5 µM
- TGI [46]: 33.6 µM
- TGI [47]: > 100 µM
- TGI [48]: > 100 µM
- TGI [49]: > 100 µM
- TGI [50]: > 100 µM
- TGI [51]: > 100 µM
- TGI [52]: > 100 µM
- TGI [53]: > 100 µM

Compound: CC#CC(O)(C(=O)OC1CCC2CCC1N2C)C1CCCC1 (configuration not stated)
- TGI [2]: > 100 µM
- TGI [3]: > 100 µM
- TGI [5]: > 100 µM
- TGI [6]: > 100 µM
- TGI [7]: > 100 µM
- TGI [8]: > 100 µM
- TGI [9]: > 10 µM
- TGI [10]: > 100 µM
- TGI [11]: > 100 µM
- TGI [13]: > 100 µM
- TGI [14]: > 100 µM
- TGI [15]: > 100 µM
- TGI [16]: > 100 µM
- TGI [17]: > 100 µM
- TGI [18]: > 10 µM
- TGI [19]: > 100 µM
- TGI [20]: > 100 µM
- TGI [21]: > 100 µM
- TGI [54]: > 100 µM
- TGI [55]: > 100 µM
- TGI [24]: > 100 µM
- TGI [25]: > 100 µM
- TGI [26]: > 10 µM
- TGI [27]: > 100 µM
- TGI [29]: > 100 µM
- TGI [30]: > 100 µM
- TGI [31]: > 100 µM
- TGI [32]: > 100 µM
- TGI [33]: > 100 µM
- TGI [34]: > 100 µM
- TGI [36]: > 100 µM
- TGI [58]: > 100 µM
- TGI [37]: > 100 µM
- TGI [56]: > 100 µM
- TGI [38]: > 100 µM
- TGI [39]: > 10 µM
- TGI [40]: > 100 µM
- TGI [59]: > 100 µM
- TGI [57]: > 100 µM
- TGI [41]: > 100 µM
- TGI [42]: > 100 µM
- TGI [43]: > 100 µM
- TGI [47]: > 100 µM
- TGI [48]: > 100 µM
- TGI [49]: > 100 µM
- TGI [50]: > 100 µM
- TGI [51]: > 100 µM
- TGI [52]: > 100 µM
